Results published in patent publication US20040127403A1, “Methods for treating and preventing Gram-positive bacteremias” (priority 2002, published 2004).
Converted amounts (≈) assume the structure as drawn. Like-named read-outs stand apart in the source and are kept apart here.

Experiments:
S. epidermidis ATCC35984 = assay: MIC, NCCLS broth microdilution; type: cell-based; conditions: Staphylococcus epidermidis, ATCC35984, S. epidermidis ATCC35984
S. epidermidis ATCC18972 = assay: MIC, NCCLS broth microdilution; type: cell-based; conditions: Staphylococcus epidermidis, ATCC18972, S. epidermidis ATCC18972
[1] = tested on: VanA strain of E. faecium (VRE); assay: Suppression of VRE in a mouse colonization model; type: in vivo, Mice
Procedure: Mice were colonized with a clinical isolate VanA strain of E. faecium (VRE) isolated from a septicemic patient. A single inoculation of 5×10^8 cfu VRE by oral gavage (Day 0) was followed by treatment with vancomycin in the drinking water to maintain colonization. On day 22, each group received the same vancomycin-containing drinking water. One group also received ramoplanin (100 μg/mL) in its drinking water. The dose of ramoplanin per day was estimated to be 15 mg/kg, based on a standard water consumption of 150 mL/kg/day. Treatment with ramoplanin was discontinued on Day 29, and vancomycin treatment was discontinued on Day 36. The control group consisted of five mice, while the ramoplanin group consisted of four mice.

E. faecium A 6350 Line-R = assay: MIC, NCCLS broth microdilution; type: cell-based
Outline: (§1)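 Broth microdilution followed the NCCLS method, with MICs read in both cation-adjusted Mueller-Hinton broth and trypticase soy broth. Media carrying ramoplanin were supplemented with 0.02% bovine serum albumin to prevent the compound from binding to plastic.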

[2] = tested on: S. aureus ATCC700699 MRSA/VISA; assay: MIC, NCCLS broth microdilution; type: cell-based
Outline: as §1

E. faecium UA392 = assay: MIC, NCCLS broth microdilution; type: cell-based; conditions: Enterococcus faecium, UA392, E. faecium UA392
Outline: as §1

E. faecalis ATCC51299 = assay: MIC, NCCLS broth microdilution; type: cell-based; conditions: Enterococcus faecalis, ATCC51299, E. faecalis ATCC51299
Outline: as §1

[3] = Day 22, prior to ramoplanin therapy, control group, 25 mg/kg/day vancomycin
[4] = Day 22, prior to ramoplanin therapy, ramoplanin group, on 25 mg/kg/day vancomycin
[5] = Day 29, control group, 25 mg/kg/day vancomycin
[6] = Day 36, 7 days after completion of ramoplanin therapy, former ramoplanin group, on 25 mg/kg/day vancomycin
[7] = Day 36, control group, 25 mg/kg/day vancomycin
[8] = Staphylococcus aureus, S. aureus ATCC700699 MRSA/VISA, Table 6, 1st, read-out: MIC
[9] = Staphylococcus aureus, S. aureus ATCC700699 MRSA/VISA, Table 6, 2nd, read-out: MIC

With `CN[C@H](CC(C)C)C(=O)N[C@H]1C(=O)N[C@@H](CC(N)=O)C(=O)N[C@H]2C(=O)N[C@H]3C(=O)N[C@H](C(=O)N[C@H](C(=O)O)c4cc(O)cc(O)c4-c4cc3ccc4O)[C@H](O)c3ccc(c(Cl)c3)Oc3cc2cc(c3O[C@@H]2O[C@H](CO)[C@@H](O)[C@H](O)[C@H]2O[C@H]2C[C@](C)(N)[C@H](O)[C@H](C)O2)Oc2ccc(cc2Cl)[C@H]1O` [Vancomycin] as the molecule, how does the MIC (S. epidermidis ATCC35984; CAMHB) read?
Its MIC is 4 µg/mL (≈ 2.76 µM).

What about the MIC (S. epidermidis ATCC35984; TSB) of the same molecule?
Its MIC is 4 µg/mL (≈ 2.76 µM).

What about the MIC (S. epidermidis ATCC35984; Table 6, 1st) of the same molecule?
The MIC was 2 µg/mL (≈ 1.38 µM).

And the MIC (S. epidermidis ATCC35984; Table 6, 2nd)?
The MIC was 2 µg/mL (≈ 1.38 µM).

And the MIC (S. epidermidis ATCC18972; CAMHB)?
Its MIC is 4 µg/mL (≈ 2.76 µM).

And the MIC (S. epidermidis ATCC18972; TSB)?
Its MIC is 4 µg/mL (≈ 2.76 µM).

And the MIC (S. epidermidis ATCC18972; Table 6, 1st)?
Its MIC is 2 µg/mL (≈ 1.38 µM).

What about the MIC (S. epidermidis ATCC18972; Table 6, 2nd) of the same molecule?
The MIC was 2 µg/mL (≈ 1.38 µM).

What about the “% Mice with VRE” value [1, 3] of the same molecule?
Its value is 100%.

And the “Enterococci in faeces: Total Enterococci” value [1, 3]?
Its value is 9.6 log 10 cfu/g faeces.

And the “Enterococci in faeces: VRE” value [1, 3]?
Its value is 9.7 log 10 cfu/g faeces.

What about the “% Mice with VRE” value [1, 4] of the same molecule?
Its value is 100%.

What about the “Enterococci in faeces: Total Enterococci” value [1, 4] of the same molecule?
The value was 9.8 log 10 cfu/g faeces.

And the “Enterococci in faeces: VRE” value [1, 4]?
The value was 9.7 log 10 cfu/g faeces.

And the “% Mice with VRE” value [1, 5]?
The value was 100%.

And the “Enterococci in faeces: Total Enterococci” value [1, 5]?
Its value is 9.3 log 10 cfu/g faeces.

And the “Enterococci in faeces: VRE” value [1, 5]?
The value was 9.4 log 10 cfu/g faeces.

And the “% Mice with VRE” value [1, 6]?
The value was 100%.

What about the “Enterococci in faeces: Total Enterococci” value [1, 6] of the same molecule?
Its value is 8.6 log 10 cfu/g faeces.

What about the “Enterococci in faeces: VRE” value [1, 6] of the same molecule?
The value was 8.7 log 10 cfu/g faeces.

What about the “% Mice with VRE” value [1, 7] of the same molecule?
The value was 100%.

What about the “Enterococci in faeces: Total Enterococci” value [1, 7] of the same molecule?
Its value is 9.6 log 10 cfu/g faeces.

And the “Enterococci in faeces: VRE” value [1, 7]?
Its value is 9.3 log 10 cfu/g faeces.

And the MIC (E. faecium A 6350 Line-R; E. faecium A 6350 Line-R (Table 2), TSB)?
The MIC was >16, >16 μg/ml.

What about the MIC (E. faecium A 6350 Line-R; Enterococcus faecium, A6350LINER) of the same molecule?
The MIC was over 16 µg/mL.

And the MIC ([2]; S. aureus ATCC700699 MRSA/VISA, TSB)?
The MIC was 2, 2 μg/ml.

What about the MIC ([2]; S. aureus ATCC700699 MRSA/VISA, Table 6, 1st) of the same molecule?
Its MIC is 2 µg/mL (≈ 1.38 µM).

What about the MIC ([2]; S. aureus ATCC700699 MRSA/VISA, Table 6, 2nd) of the same molecule?
The MIC was 2 µg/mL (≈ 1.38 µM).

And the MIC ([2]; Staphylococcus aureus)?
The MIC was 2 µg/mL (≈ 1.38 µM).

And the MIC (E. faecium UA392; CAMHB)?
The MIC was 1 µg/mL (≈ 0.69 µM).

And the MIC (E. faecium UA392; TSB)?
The MIC was 2 µg/mL (≈ 1.38 µM).

And the MIC (E. faecium UA392; Table 6, 1st)?
The MIC was 2 µg/mL (≈ 1.38 µM).

And the MIC (E. faecium UA392; Table 6, 2nd)?
Its MIC is 2 µg/mL (≈ 1.38 µM).

And the MIC (E. faecalis ATCC51299; CAMHB)?
Its MIC is over 16 µg/mL.

What about the MIC (E. faecalis ATCC51299; TSB) of the same molecule?
The MIC was over 16 µg/mL.

And the MIC (E. faecalis ATCC51299; Table 6, 1st)?
Its MIC is over 16 µg/mL.

And the MIC (E. faecalis ATCC51299; Table 6, 2nd)?
Its MIC is 32 µg/mL (≈ 22.1 µM).

Which results are given for `COc1cccc(OC)c1C(=O)N[C@@H]1C(=O)N2[C@@H]1SC(C)(C)[C@@H]2C(=O)O` [Meth., methicillin]?
MIC (S. epidermidis ATCC35984; Table 6, 1st, read-out: MIC): > 16 µg/mL; MIC (S. epidermidis ATCC35984; Table 6, 2nd, read-out: MIC): > 64 µg/mL; MIC (S. epidermidis ATCC18972; Table 6, 1st, read-out: MIC): > 16 µg/mL; MIC (S. epidermidis ATCC18972; Table 6, 2nd, read-out: MIC): 64 µg/mL (≈ 168 µM); MIC [2, 8]: > 16 µg/mL; MIC [2, 9]: > 64 µg/mL; MIC (E. faecium UA392; Table 6, 1st, read-out: MIC): > 16 µg/mL; MIC (E. faecium UA392; Table 6, 2nd, read-out: MIC): > 64 µg/mL; MIC (E. faecalis ATCC51299; Table 6, 1st, read-out: MIC): > 16 µg/mL; MIC (E. faecalis ATCC51299; Table 6, 2nd, read-out: MIC): 32 µg/mL (≈ 84.1 µM)

Which MIC (S. epidermidis ATCC35984; Table 6, 1st, read-out: MIC) does the source give for `CC(=O)NC[C@H]1CN(c2ccc(N3CCOCC3)c(F)c2)C(=O)O1` [Linezolid] here?
The MIC was 4 µg/mL (≈ 11.9 µM).

And the MIC (S. epidermidis ATCC35984; Table 6, 2nd, read-out: MIC)?
The MIC was 2 µg/mL (≈ 5.93 µM).

What about the MIC (S. epidermidis ATCC18972; Table 6, 1st, read-out: MIC) of the same molecule?
The MIC was 2 µg/mL (≈ 5.93 µM).

And the MIC (S. epidermidis ATCC18972; Table 6, 2nd, read-out: MIC)?
The MIC was 1 µg/mL (≈ 2.96 µM).

And the MIC [2, 8]?
The MIC was 4 µg/mL (≈ 11.9 µM).

And the MIC [2, 9]?
The MIC was 2 µg/mL (≈ 5.93 µM).

What about the MIC (E. faecium UA392; Table 6, 1st, read-out: MIC) of the same molecule?
The MIC was 4 µg/mL (≈ 11.9 µM).

What about the MIC (E. faecium UA392; Table 6, 2nd, read-out: MIC) of the same molecule?
Its MIC is 2 µg/mL (≈ 5.93 µM).

What about the MIC (E. faecalis ATCC51299; Table 6, 1st, read-out: MIC) of the same molecule?
Its MIC is 2 µg/mL (≈ 5.93 µM).

And the MIC (E. faecalis ATCC51299; Table 6, 2nd, read-out: MIC)?
Its MIC is 2 µg/mL (≈ 5.93 µM).
